The values that follow come from PMC10384408, “Anticancer Tungstenocenes with a Diverse Set of (O,O–), (O,S–) and (O,N–) Chelates—A Detailed Biological Study Using an Improved Evaluation via 3D Spheroid Models” (Pharmaceutics, 2023).

The subject of data set [1] is MCF-7 cells. The experiment in a line: Annexin V-FITC/PI apoptosis assay, MCF-7. The note with it: MCF-7, 24 h, 200 µM; for ∑apoptotic cells [%]: sum of early and late.
Data set [2] concerns HCT116 cells. Kind of data set: Annexin V-FITC/PI apoptosis assay, HCT116. Type of data set: cell-based, human. The note with it: HCT116, 24 h, 200 µM; for ∑apoptotic cells [%]: sum of early and late.
Data set [3] relates to HCT116 cells. Kind of data set: Resazurin assay, HCT116 2D monolayer. The note with it: 96 h. Type of data set: cell-based, human. A digest of the protocol: (§1)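 Monolayers seeded at 2 × 10^3 (HCT116, HT29) or 4 × 10^3 (MCF-7) cells per well and dosed with serial compound dilutions after 24 h. After 96 h exposure, resazurin added for 4 h; resorufin fluorescence read at 530 nm with 620 nm reference, cell-free blanks subtracted.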
For orientation: Resazurin is reduced to fluorescent resorufin, in cell work by metabolically active cells.

The test system of data set [4] is CH1/PA-1 (ovarian teratocarcinoma) cells. Kind of data set: MTT cytotoxicity assay, CH1/PA-1 monolayer. Format: cell-based, human. The note with it: exposure time 96 h, mean ± SD. A digest of the protocol: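 Monolayer cells seeded at 1 × 10^3 (CH1/PA-1), 2 × 10^3 (SW480), 3 × 10^3 (A549) or 7 × 10^3 (IMR-90) per well, preincubated 24 h, then exposed to serially diluted drug for 96 h. Viability by MTT (4 h), absorbance 550 nm (690 nm reference); IC50 interpolated from concentration-effect curves relative to untreated controls, ≥3 independent experiments.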
For orientation: Tetrazolium dyes change colour on reduction, which living cells bring about.

Data set [5] has as its system MCF-7 cells. Kind of data set: Resazurin assay, MCF-7 2D monolayer. Type of data set: cell-based, human. The note with it: 96 h. An outline of the steps: as §1
In data set [6] the test system is HCT116 multicellular tumor spheroids. The experiment in a line: Resazurin assay, HCT116 3D spheroids. Type of data set: cell-based, human. As to conditions: 96 h; for IC50: spheroids. A digest of the protocol: (§2)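 Spheroids formed from 400 HCT116, 400 HT29 or 800 MCF-7 cells in ultra-low attachment wells over 96 h, then exposed to serially diluted compounds for 96 h. Resazurin added with 12 h incubation; resorufin fluorescence read at 530 nm (reference 620 nm).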

For data set [7], the system named is MCF-7 multicellular tumor spheroids. Kind of data set: Resazurin assay, MCF-7 3D spheroids. Format: cell-based, human. As to conditions: 96 h; for IC50: spheroids. An outline of the steps:
as §2

The test system of data set [8] is HT29 multicellular tumor spheroids. The experiment in a line: Resazurin assay, HT29 3D spheroids. Type of data set: cell-based, human. The note with it: 96 h; for IC50: spheroids. An outline of the steps:
as §2

For another data set, the system named is HT29 cells. Kind of data set: Annexin V-FITC/PI apoptosis assay, HT29. The note with it: HT29, 24 h, 200 µM; for ∑apoptotic cells [%]: sum of early and late.

Broadly, the IC50 is the concentration at which inhibition is half-maximal. For the compound `F[P-](F)(F)(F)(F)F.O=C([O-])c1ccccn1.[W+4].c1cc[cH-]c1.c1cc[cH-]c1` [Compound 5, Bis(η^5-cyclopentadienyl)[2-(carboxylato-κO)-pyridine-κN]tungsten(IV) hexafluorophosphate], the results for the “early apoptotic cells [%] AV+ / PI-” value in the data set with MCF-7 cells [1], with HCT116 cells [2] and with HT29 cells were 1.3 ± 0.7%, 2.0 ± 1.1% and 0.9 ± 0.7%, respectively. Moreover, the “late apoptotic cells [%] AV+ / PI+” value with MCF-7 cells [1] is on record as 7.9 ± 5.3%; in the data set on HCT116 cells [2], 2.9 ± 0.7%; with HT29 cells, 5.3 ± 6.9%. Further, the “necrotic cells [%] AV- / PI+” value with MCF-7 cells [1] was determined as 4.2 ±2.2%; in the data set on HCT116 cells [2] it was 2.4 ± 1.2%; in the data set on HT29 cells it was 2.3 ± 1.5%. Besides, the “∑apoptotic cells [%]” value with MCF-7 cells [1] stood at 9.2%; with HCT116 cells [2], 4.9%; with HT29 cells, 6.2%. The “viable cells [%] AV- / PI-” value with HCT116 cells [2] worked out at 92.7 ± 1.3%. The IC50 (in the data set with HCT116 cells [3]; in data set [4]; with MCF-7 cells [5]; in [6]; in data set [7]; in data set [8]) was above 200 µM in each case.
For the compound `Cc1c([O-])c(=O)ccn1C.F[P-](F)(F)(F)(F)F.[W+4].c1cc[cH-]c1.c1cc[cH-]c1` [Compound 6, Bis(η^5-cyclopentadienyl)[1,2-dimethyl-3-(oxo-κO)-4-(1H)-pyridonato-κO]tungsten(IV) hexafluorophosphate], the entries for the “early apoptotic cells [%] AV+ / PI-” value in the data set with MCF-7 cells [1], in the data set on HCT116 cells [2] and with HT29 cells were 1.4 ± 0.8%, 5.0 ± 1.3% and 4.3 ± 1.8%, respectively. Besides, the “late apoptotic cells [%] AV+ / PI+” value amounted to 3.6 ± 1.5% in the data set on MCF-7 cells [1], 17.2 ± 122% in the data set on HCT116 cells [2] and 4.2 ± 0.6% in the data set on HT29 cells. The “necrotic cells [%] AV- / PI+” value is given as 2.1 ± 0.5% with MCF-7 cells [1], 3.1 ± 0.7% in the data set on HCT116 cells [2] and 2.4 ± 0.7% in the data set on HT29 cells. Besides, the “viable cells [%] AV- / PI-” value with MCF-7 cells [1] is recorded as 92.8 ± 2.2%; in the data set on HCT116 cells [2] it was 74.7 ± 14.1%; with HT29 cells it was 89.1 ± 0.4%. Besides, the “∑apoptotic cells [%]” value was 5.1% in the data set on MCF-7 cells [1], 22.2% with HCT116 cells [2] and 8.5% with HT29 cells. Besides, the IC50 in the data set with HCT116 cells [3] was above 200 µM; in data set [4] it was above 200 µM; in the data set on MCF-7 cells [5] it was 172 ± 45 µM; in data set [6], above 200 µM; in data set [7] it was above 200 µM; in data set [8] it was above 200 µM.
Turning to `Cc1cc(=O)c([O-])co1.F[P-](F)(F)(F)(F)F.[W+4].c1cc[cH-]c1.c1cc[cH-]c1` [Compound 7, Bis(η^5-cyclopentadienyl)[2-methyl-5-(oxo-κO)-4-(1H)-pyran-4-ato-κO] tungsten(IV) hexafluorophosphate], the “early apoptotic cells [%] AV+ / PI-” value in the data set with MCF-7 cells [1] was determined as 1.3 ± 0.4%; with HCT116 cells [2] it was 4.5 ± 1.8%; with HT29 cells, 3.0 ± 1.6%. In addition, the “late apoptotic cells [%] AV+ / PI+” value in the data set on MCF-7 cells [1] is recorded as 8.1 ± 5.5%; in the data set with HCT116 cells [2], 13.7 ± 8.2%; in the data set on HT29 cells, 5.5 ± 1.9%. The “necrotic cells [%] AV- / PI+” value with MCF-7 cells [1] was 3.2 ± 1.2%; in the data set with HCT116 cells [2], 3.6 ± 0.9%; in the data set with HT29 cells it was 3.1 ± 2.3%. The “viable cells [%] AV- / PI-” value in the data set with MCF-7 cells [1] turned out to be 87.4 ± 6.6%; in the data set with HCT116 cells [2], 78.2 ± 9.3%; in the data set on HT29 cells it was 88.4 ± 3.8%. Besides, the “∑apoptotic cells [%]” value in the data set with MCF-7 cells [1] was 9.4%; with HCT116 cells [2], 18.2%; in the data set on HT29 cells, 8.5%. The IC50 with HCT116 cells [3] was above 200 µM; in data set [4], 152 ± 16 µM; with MCF-7 cells [5] it was above 200 µM; in data set [6] it was above 200 µM; in data set [7], above 200 µM; in data set [8], above 200 µM.
`Cc1cc(=S)c([O-])co1.F[P-](F)(F)(F)(F)F.[W+4].c1cc[cH-]c1.c1cc[cH-]c1` [Compound 8, Bis(η^5-cyclopentadienyl)[2-methyl-5-(oxo-κO)-pyran-4-(1H)-thionato-κS] tungsten(IV) hexafluorophosphate]: the results for the “early apoptotic cells [%] AV+ / PI-” value with MCF-7 cells [1], with HCT116 cells [2] and with HT29 cells were 1.2 ± 0.3%, 5.5 ± 2.0% and 3.3 ± 2.1%, respectively. Besides, the “late apoptotic cells [%] AV+ / PI+” value in the data set on MCF-7 cells [1] was 8.7 ± 6.9%; in the data set on HCT116 cells [2] it was 12.4 ± 2.4%; in the data set on HT29 cells, 6.2 ± 4.1%. Also, the entries for the “necrotic cells [%] AV- / PI+” value with MCF-7 cells [1], with HCT116 cells [2] and in the data set on HT29 cells were 2.7 ± 1.4%, 2.8 ± 1.3% and 2.1 ± 0.9%, respectively. Further, the “viable cells [%] AV- / PI-” value with MCF-7 cells [1] came out at 87.3 ± 8.3%; in the data set on HCT116 cells [2] it was 79.4 ± 3.5%; in the data set on HT29 cells, 88.4 ± 3.6%. Besides, the results for the “∑apoptotic cells [%]” value in the data set with MCF-7 cells [1], in the data set on HCT116 cells [2] and with HT29 cells were 9.9%, 17.9% and 9.5%, respectively. For the same compound, the IC50 in the data set with HCT116 cells [3] is above 200 µM; in data set [4], 93 ± 15 µM; in the data set with MCF-7 cells [5], 163 ± 32 µM; in [6], 178 ± 14 µM; in [7], above 200 µM; in [8], above 200 µM.
As for `CCc1occc(=O)c1[O-].F[P-](F)(F)(F)(F)F.[W+4].c1cc[cH-]c1.c1cc[cH-]c1` [Compound 9, Bis(η^5-cyclopentadienyl)[2-ethyl-3-(oxo-κO)-4-(1H)-pyran-4-ato-κO] tungsten(IV) hexafluorophosphate], the “early apoptotic cells [%] AV+ / PI-” value in the data set with MCF-7 cells [1] was 1.6 ± 1.0%; in the data set with HCT116 cells [2], 1.5 ± 0.8%; in the data set with HT29 cells, 0.9 ± 0.6%. The results for the “late apoptotic cells [%] AV+ / PI+” value with MCF-7 cells [1], in the data set on HCT116 cells [2] and in the data set with HT29 cells were 8.4 ± 5.5%, 2.3 ± 0.3% and 3.9 ± 4.5%, respectively. Further, the “necrotic cells [%] AV- / PI+” value is listed as 2.9 ± 1.8% with MCF-7 cells [1], 2.3 ± 0.4% in the data set with HCT116 cells [2] and 2.3 ± 1.3% with HT29 cells. Besides, the results for the “viable cells [%] AV- / PI-” value with MCF-7 cells [1], in the data set on HCT116 cells [2] and in the data set with HT29 cells were 87.2 ± 7.2%, 93.9 ± 0.5% and 92.9 ± 5.8%, respectively. The “∑apoptotic cells [%]” value in the data set with HCT116 cells [2] came to 3.8%; in the data set with HT29 cells, 4.8%. Further, the IC50 in the data set with HCT116 cells [3] is above 200 µM; in [4], above 200 µM; with MCF-7 cells [5] it was 147 ± 15 µM; in data set [6], above 200 µM; in data set [7], above 200 µM; in data set [8], above 200 µM.
As for `CCc1occc(=S)c1[O-].F[P-](F)(F)(F)(F)F.[W+4].c1cc[cH-]c1.c1cc[cH-]c1` [Compound 10, Bis(η^5-cyclopentadienyl)[2-ethyl-3-(oxo-κO)-4-(1H)-pyran-4-thionato-κS] tungsten(IV) hexafluorophosphate], the entries for the “early apoptotic cells [%] AV+ / PI-” value with MCF-7 cells [1], in the data set on HCT116 cells [2] and in the data set with HT29 cells were 5.5 ± 3.2%, 3.8 ± 3.2% and 3.1 ± 2.8%, respectively. Also, the “late apoptotic cells [%] AV+ / PI+” value with MCF-7 cells [1] worked out at 46.3 ± 3.2%; in the data set with HCT116 cells [2], 4.3 ± 3.6%; with HT29 cells, 5.1 ± 5.2%. Moreover, the entries for the “necrotic cells [%] AV- / PI+” value with MCF-7 cells [1], with HCT116 cells [2] and in the data set with HT29 cells were 32.4 ± 12.3%, 2.4 ± 0.7% and 2.3 ± 0.9%, respectively. In addition, the “viable cells [%] AV- / PI-” value is listed as 15.7 ± 6.0% in the data set with MCF-7 cells [1], 89.6 ± 7.5% with HCT116 cells [2] and 89.5 ± 8.5% in the data set on HT29 cells. Besides, the “∑apoptotic cells [%]” value in the data set on HCT116 cells [2] turned out to be 8.0%; in the data set with HT29 cells it was 8.2%. Also, the IC50 in the data set on HCT116 cells [3] is 42 ± 3 µM; in data set [4], 21 ± 1 µM; in the data set on MCF-7 cells [5], 29 ± 4 µM; in data set [6], 69 ± 12 µM; in [7] it was above 200 µM; in data set [8], above 200 µM. Further, the “ratio 3D/2D of IC50 values, HCT116” value in [6] amounted to 1.6. Moreover, the “ratio 3D/2D of IC50 values, MCF-7” value in data set [7] is recorded as above 6.9. For the same compound, the “ratio 3D/2D of IC50 values, HT29” value in data set [8] is listed as above 3.7.
